Data: US8853260B2, “Formulations of pharmacological agents, methods for the preparation thereof and methods for the use thereof” (priority 1997, dated 2014)

Assays:
[1] = Blood kinetics following multiple intravenous dose levels of Capxol; type: in vivo, rat
Experimental: Blood was collected from the tail vein and the AUC0-24 was calculated. At 24 hours, blood samples were collected; extracted, and the extract injected on HPLC to determine the level of parent compound in the blood.

[2] = test system: patients with breast cancer, non-Hodgkin's lymphoma or ovarian cancer; settings: cited from earlier work
[3] = test system: ovarian cancer and breast cancer; settings: 250 mg/m^2/21 days; cited from earlier work

## CC(=O)O[C@H]1C(=O)[C@@]2(C)[C@H]([C@H](OC(=O)c3ccccc3)[C@]3(O)C[C@H](OC(=O)[C@H](O)[C@@H](NC(=O)c4ccccc4)c4ccccc4)C(C)=C1C3(C)C)[C@]1(OC(C)=O)CO[C@@H]1C[C@@H]2O [paclitaxel]
[1]; 9 mg/kg dose, given as Capxol
  level of parent compound in blood after 24 hours: 0.04 ppm
[1]; from the 9 mg/kg dose to the 148 mg/kg dose
  increase of parent compound level after 24 hours, factor: 8.5
[2]; 24 hour infusion, combined with cyclophosphamide 5,625 mg/m^2 and cisplatin 165 mg/m^2, AHPCS
  MTD: 775 mg/m^2
[2]; patients with breast cancer, combination with cyclophosphamide and cisplatin
  partial response: 54%
[3]
  objective response rate: 35.9%
